# In patent US9708628B2, “Cationic lipid having improved intracellular kinetics” (NOF CORPORATION, priority 2011, dated 2017):
# How the values were obtained:
# [1] = Particle size and surface potential of siRNA-encapsulated MEND (ethanol dilution method); format: physicochemical; conditions: siRNA/protamine MEND, PEG2000-DMG 3 mol %
# Method: A siRNA solution and protamine (CALBIOCHEM) solution were diluted with 10 mM HEPES buffer (pH 5.3) to 0.3 mg/mL and 0.2 mg/mL, respectively. While stirring 0.3 mg/mL siRNA solution (250 μL), 0.2 mg/mL protamine solution (250 μL) was added dropwise in small portions to prepared an electrostatic complex of siRNA and protamine (N/P ratio=1.0) as a core of the vector.
# A lipid solution in ethanol was mixed at a ratio of B-2:SOPE:Chol=5:3:2 for B-2 MEND (Example 1), at a ratio of B-2-4:DOPE:Chol=3:3:4 for B-2-4 MEND (Example 4), and at a ratio of B-2-5:POPE:Chol=3:4:3 for B-2-5 MEND (Example 5), to a total lipid of 660 nmol in a 5 mL tube. Further, PEG2000-DMG was added as PEG lipid in an amount equivalent to 3 mol % of the total lipid, and ethanol was added to a total volume of 400 μL each. While stirring the lipid solution by a vortex mixer, a solution (400 μL) of a nucleic acid electrostatic complex composed of siRNA/protamine prepared in [Experimental Example 27] was mixed, then 10 mM HEPES buffer (pH 5.3, 2.4 mL) was quickly added, and the mixture was vigorously stirred. The mixture was subjected to centrifugal ultrafiltration using Amicon Ultra-15 100K device (Millipore) at 1000 g, 10 min, 30° C. The mixture was sufficiently diluted with 10 mM HEPES buffer (pH 7.4), and again subjected to centrifugal ultrafiltration. This solution was adjusted to an object lipid concentration with 10 mM HEPES buffer (pH 7.4).
# The particle size and surface potential were measured using the dynamic light scattering method (Zetasizer Nano; Malvern). The particle size and surface potential of various MENDs prepared by the preparation method of [Experimental Example 28] are shown in Table 5.
# HT1080 cells [2] = experiment: Inhibitory effect of retinoic acid (RA) on gene expression; format: cell-based; conditions: 0, 5, 7.5, 10 μM RA
# Method: MENDs of B-2-4 (Example 4), B-2 (Example 1) were prepared according to [Experimental Example 1] (1), (2), [Experimental Example 18]. For the preparation, PEG2000-DMG was used as PEG lipid, and MEND solutions corresponding to 0.55 mM of the lipid concentration were prepared.
# HT1080 cells were plated on a 3.5 cm cell culture dish at 4×10^4 cells/2 mL/dish 24 hr before, various MENDs were diluted with DMEM (FBS 10%+, Phenol red free) containing a final concentration 200 μM of D-luciferin potassium and 0, 5, 7.5, 10 μM RA (sigma) to achieve 1.6 μg/2 mL/dish based on the pDNA amount and transfection was performed. According to the Kronos Dio package insert, the luminescence amount was measured for 2 min every 20 min and taken as the luciferase activity (RLU/2 min).
# [3] = Liposome destabilization test in reductive environment (DTT, TNS fluorescence); format: physicochemical; conditions: 10 mM DTT, 37° C., 0-24 hr; TNS at pH 4.0
# Method: DTT was added to various MEND solutions to a final concentration of 10 mM and the mixtures were stood at 37° C. The fluorescence intensity was measured using TNS (6-(p-Toludino)-2-Naphthalene Sulfonic acid) at the time points of 0, 1, 2, 4, 8, 24 hr later. The MEND solutions were diluted to 0.5 mM. The 0.5 mM MEND solution (12 μL), 20 mM citrate buffer (186 μL, containing 150 mM NaCl, acidic pH (pH 4.0)), and 0.6 mM TNS (2 μL) were added to a 96-well plate for fluorescence measurement (Nunc), and the fluorescence intensity was measured at excitation wavelength 321 nm, detection wavelength 447 nm, at 37° C. As a control, MEND solution added with the same amount of 10 mM HEPES buffer free of DTT at 0 hr and stood for each time at 37° C. was used, and the fluorescence intensity was measured using TNS by the same treatment. The fluorescence intensity under reductive environment was divided by the fluorescence intensity of the control and used as an index of the destabilization of lipid membrane.
# As a result, attenuation of TNS fluorescence due to the DTT treatment was not observed in DODAP and B-2-1 not having a disulfide bond. […] TNS is adsorbed, under an acidic environment of pH 4.0, to a particle surface having a positive surface potential via electrostatically interactions, and emits fluorescence according to the liposoluble environment of the lipid structure part of a liposome.
# HT1080 cells [4] = experiment: Influence of endosome/lysosome acidification inhibition (bafilomycin A1) on gene expression activity; format: cell-based; conditions: 0.5 μM bafilomycin A1
# Method: Using B-2 (Example 1), B-2-1 (Comparative Example 1), and DODAP (Comparative Example 2) as cationic lipids, MENDs having a composition of cationic lipid:SOPE:Chol=5:3:2 were prepared by the method described in [Experimental Example 1] (2). For the preparation, PEG2000-DMG was used as PEG lipid, and MEND solutions corresponding to 0.55 mM of the lipid concentration were prepared. For cationic MEND, lipids having a composition of DOTAP (Comparative Example 3):DOPE:Chol:=3:4:3 were used, and the cationic MEND was prepared according to the method described in [Experimental Example 1] (3).
# HT1080 cells were plated on a 24-well plate at 4×10^4 cell/500 μL/well 24 hr before, bafilomycin A1 was added at 0.5 μM 30 min before for a pre-treatment. Various MENDs were diluted with DMEM (FBS 10%+) to a pDNA amount of 0.4 μg/500 μL/well, bafilomycin A1 was added at 0.5 μM, and transfection was performed. 3 hr later, the MEND solution was removed, and DMEM (FBS 10%+) was added at 500 μL/well to change the medium. 24 hr later, the cells were washed with PBS(−) (500 μL), 1× Lysis buffer was added to each well by 75 μL, and the mixture was stood at −80° C. for 30 min or longer. The frozen 24-well plate was thawed on ice, the cells were detached with a cell scraper, and the total amount thereof was transferred into an Eppendorf tube and centrifuged under the conditions of 15000 rpm, 4° C., 5 min. The supernatant (50 μL) was recovered in a different Eppendorf tube, and used for luciferase assay and BCA assay. The gene expression was evaluated by the method described in [Example 4] (2).
SMILES,PDI [1],size (nm) [1] [nm],zeta (mV) [1] [mV],attenuation of TNS fluorescence due to DTT treatment (destabilization of lipid membrane) [3],gene expression activity in presence of RA (HT1080 cells [2]),gene expression activity under bafilomycin A1 (HT1080 cells [4])
"CCCCCCCC/C=C\CCCCCCCC(=O)OCC(CN(C)C)OC(=O)CCCCCCC/C=C\CCCCCCCC (stereo not drawn) [DODAP, reference compound]",,,,not observed,,showed a decrease in the gene expression activity
"CCCCCCCC/C=C\CCCCCCCC(=O)OCC(C[N+](C)(C)C)OC(=O)CCCCCCC/C=C\CCCCCCCC (stereo not drawn) [DOTAP, reference compound]",,,,,,did not show a decrease in the gene expression activity
CCCCCCCCCCCCCC(=O)OCCCN(C)CCSSCCN(C)CCCOC(=O)CCCCCCCCCCCCC [Example B-2],0.07,186,−1.7,disappearance of TNS fluorescence in a time-dependent manner,not decreased,showed a decrease in the gene expression activity

# Second part, led by results:
PDI [1],size (nm) [1] [nm],zeta (mV) [1] [mV],attenuation of TNS fluorescence due to DTT treatment (destabilization of lipid membrane) [3],SMILES,gene expression activity in presence of RA (HT1080 cells [2]),gene expression activity under bafilomycin A1 (HT1080 cells [4])
0.11,186,−5.1,,CC1=C(/C=C/C(C)=C/C=C/C(C)=C/C(=O)OCCCN(C)CCSSCCN(C)CCCOC(=O)/C=C(C)/C=C/C=C(C)/C=C/C2=C(C)CCCC2(C)C)C(C)(C)CCC1 [Example B-2-4],decreased by RA in a concentration dependent manner,
,,,not observed,"CCCCCCCCCCCCCC(=O)OCCCN(C)CCCCCCN(C)CCCOC(=O)CCCCCCCCCCCCC [Example B-2-1, reference compound]",,did not show a decrease in the gene expression activity
0.13,218,−9.1,,Cc1c(C)c2c(c(C)c1OC(=O)CCC(=O)OCCCN(C)CCSSCCN(C)CCCOC(=O)CCC(=O)Oc1c(C)c(C)c3c(c1C)CCC(C)(CCCC(C)CCCC(C)CCCC(C)C)O3)CCC(C)(CCCC(C)CCCC(C)CCCC(C)C)O2 (stereo not drawn) [Example B-2-5],,
